The target of assay [1] is human JAK1 (a.a. 837-1142) (Homo sapiens, UniProt P23458). Nature of the assay: In vitro JAK kinase assay (HTRF), JAK1. In kind it is biochemical. The settings on record: 1 mM ATP. (TR-FRET usually uses a lanthanide donor and a delayed reading to cut background.)
Protocol: (§1) The catalytic activity of JAK1, JAK2 or JAK3 was assayed by measuring the phosphorylation of a biotinylated peptide. The phosphorylated peptide was detected by homogenous time resolved fluorescence (HTRF). IC5os of compounds are measured for each kinase in the 40 microL reactions that contain the enzyme, ATP and 500 nM peptide in 50 mM Tris (pH 7.8) buffer with 100 mM NaCl, 5 mM DTT, and 0.1 mg/mL (0.01%) BSA. […] Reactions are carried out at room temperature for 1 hour and then stopped with 20 μL 45 mM EDTA, 300 nM SA-APC, 6 nM Eu-Py20 in assay buffer (Perkin Elmer, Boston, MA). Binding to the Europium labeled antibody takes place for 40 minutes and HTRF signal was measured on a Fusion plate reader (Perkin Elmer, Boston, MA).
The next assay addresses JAK2 (a.a. 828-1132) (Homo sapiens (Human), UniProt O60674). Nature of the assay: In vitro JAK kinase assay (HTRF), JAK2, for JAK2/JAK1 ratio. Format: biochemical. Conditions: IC50 ratio at 1 mM ATP.
Another assay relates to CSU skin. The assay is described as follows: Ex vivo culture of CSU lesional skin biopsies, RNA-seq gene expression. Format: cell-based, human. Here is the method:
Full-thickness cutaneous skin biopsies were obtained from active disease, untreated, urticaria patients. A single 4mm-punch biopsy was obtained from the same lesion for each patient and longitudinally divided into two pieces. Biopsies were cultured for 24 hours in KBM media+CaCl2, with or without compound (i.e., Compound 1) or DMSO (control). After 24 hours, tissue RNA was isolated for subsequent analysis. RNA extracts were quantified with the Qubit fluorometer (Invitrogen) and quality assessed by TapeStation automated electrophoresis (Agilent Technologies). Total RNA (250 ng) treated with amplification-grade DNase I (Invitrogen) were enriched for non-ribosomal RNA using the NEBNext rRNA Depletion Kit v2 (New England BioLabs). Library preparation was performed with the NEBNext Ultra II Directional RNA Library Prep Kit for Illumina (New England BioLabs) following the manufactures protocol for library preparation of intact or partially degraded RNA (section 2). For comparability, the same protocol was used for all samples. RNA-seq libraries were pooled and paired-end sequencing was performed on the NextSeq 2000 (Illumina) with an average sequencing depth of 200 M reads. FASTQ files were processed with Nextflow RNASeq pipeline (v. 22.10.1). […] The effects of JAK1 inhibition with Compound 1 on DEGs identified in the prior analysis were further evaluated. […]

In the next assay the test system is IgE. Conditions: CSU patients, after 12 weeks, with second-generation H1 antihistamine, cited from earlier work.

Data on 2 molecules can be found in patent US20240058343A1, “TREATMENT OF URTICARIA USING JAK INHIBITORS” (Incyte Corporation, priority 2022, published 2024).

Like-named read-outs stand apart in the source and are kept apart here.

Chain of JAK2 (a.a. 828-1132) (O60674 828-1132): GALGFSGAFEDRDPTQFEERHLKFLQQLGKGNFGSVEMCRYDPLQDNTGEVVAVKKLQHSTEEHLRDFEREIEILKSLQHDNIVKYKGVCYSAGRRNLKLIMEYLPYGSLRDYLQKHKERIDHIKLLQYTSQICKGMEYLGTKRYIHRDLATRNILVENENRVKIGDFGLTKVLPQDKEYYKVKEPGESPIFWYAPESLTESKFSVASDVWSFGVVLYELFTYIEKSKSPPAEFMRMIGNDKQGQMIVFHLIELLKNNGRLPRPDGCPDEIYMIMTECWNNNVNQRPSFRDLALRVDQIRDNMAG
Protocol for JAK2 (a.a. 828-1132): as §1

By IC50 is commonly meant the midpoint of a concentration-inhibition curve. Low values mean greater potency, high ones weaker potency. Turning to `N#CCC1(n2cc(-c3ncnc4[nH]ccc34)cn2)CN(C2CCN(C(=O)c3ccnc(C(F)(F)F)c3F)CC2)C1` [compound 1, {1-{1-[3-Fluoro-2-(trifluoromethyl)isonico-tinoyl]piperidin-4-yl}-3-[4-(7H-pyrrolo[2,3-d]pyrimidin-4-yl)-1H-pyrazol-1-yl]azetidin-3-yl}acetonitrile], the IC50 in assay [1] is below 10 nM. At JAK2 (a.a. 828-1132), the JAK2/JAK1 is on record as above 10. The PTX3 expression result in the assay on CSU skin (CSU skin, 24 hour ex vivo treatment, FIG. 1) is reported as “dramatically reduced”. In the assay on CSU skin (cultured CSU skin, 24 hours, vs DMSO control), the “CCL2, S100A8, SELE and PTX3 expression” value is reported as “altered expression”.

With “Omalizumab: an anti-IgE monoclonal antibody (administered subcutaneously)”, the “patients achieving a complete response” value is “approximately 35%” in the assay on IgE and around 35% in the assay with IgE (listed as omalizumab).
